Where two headings read alike, the source gives them in different places.
Experiments:
MAGL [1] = target: MAGL (Homo sapiens (Human), UniProt Q99685); experiment: In vitro competitive activity-based protein profiling (gel-based, FP-Rh or HT-01 probe); assay type: biochemical
Protocol: In Vitro Competitive Activity-Based Protein Profiling.
Proteomes (human prefrontal cortex or cell membrane fractions) (50 μL, 1.0 mg/mL total protein concentration) were preincubated with varying concentrations of inhibitors at 37° C. After 30 min, FP-Rh or HT-01 (1.0 μL, 50 μM in DMSO) was added and the mixture was incubated for another 30 min at room temperature. Reactions were quenched with SDS loading buffer (15 μL—4×) and run on SDS-PAGE.

MAGL [2] = target: MAGL (Mus musculus (Mouse), UniProt O35678); experiment: In vitro competitive activity-based protein profiling, mouse brain proteome; assay type: biochemical; conditions: for inhibition at 1 µM: mouse; for IC50: mouse brain
Chain of MAGL (Mus musculus (Mouse), UniProt O35678) (O35678 whole entry): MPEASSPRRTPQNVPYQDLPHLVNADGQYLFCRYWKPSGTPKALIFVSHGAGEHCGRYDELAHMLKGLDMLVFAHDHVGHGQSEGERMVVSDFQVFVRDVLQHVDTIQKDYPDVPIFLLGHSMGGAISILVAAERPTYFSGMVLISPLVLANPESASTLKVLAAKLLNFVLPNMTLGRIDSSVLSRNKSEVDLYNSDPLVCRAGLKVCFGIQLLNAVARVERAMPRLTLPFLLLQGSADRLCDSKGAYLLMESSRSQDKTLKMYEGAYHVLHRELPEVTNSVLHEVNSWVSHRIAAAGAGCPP

[3] = human PC3, read-out: MAGL Human PC3 (IC50)
[4] = human PFC (prefrontal cortex), read-out: MAGL Human PFC (IC50)
[5] = human PFC (prefrontal cortex), read-out: MAGL % Inhibition at 1 μM (human PFC)
[6] = human PC3, read-out: MAGL % Inhibition at 1 μM (human PC3)

Chain of MAGL (Homo sapiens (Human), UniProt Q99685) (Q99685 whole entry): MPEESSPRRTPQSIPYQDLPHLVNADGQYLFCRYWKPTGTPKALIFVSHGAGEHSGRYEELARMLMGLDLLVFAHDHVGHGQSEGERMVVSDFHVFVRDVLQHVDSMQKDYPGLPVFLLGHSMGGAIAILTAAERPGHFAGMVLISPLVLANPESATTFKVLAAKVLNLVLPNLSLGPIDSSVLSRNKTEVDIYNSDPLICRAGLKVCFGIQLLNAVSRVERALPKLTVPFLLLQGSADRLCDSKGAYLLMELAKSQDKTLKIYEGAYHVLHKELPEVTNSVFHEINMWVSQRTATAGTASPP

Compound	IC50 (MAGL [1]; [3]) [nM]	IC50 (MAGL [1]; [4]) [nM]	inhibition at 1 µM (MAGL [2]) [%]	IC50 (MAGL [2]) [nM]	inhibition at 1 µM (MAGL [1]; [5]) [%]	inhibition at 1 µM (MAGL [1]; [6]) [%]
O=C(OC(C(F)(F)F)C(F)(F)F)N1CCC2(CCCN2Cc2cc3cc(Cl)cc(Cl)c3[nH]2)CC1 [Example 110, 1,1,1,3,3,3-Hexafluoropropan-2-yl 1-((5,7-dichloro-1H-indol-2-yl)methyl)-1,8-diazaspiro[4.5] decane-8-carboxylate]		< 100	> 75	< 100		
O=C(OC(C(F)(F)F)C(F)(F)F)N1CCC2(CCCN2Cc2cc3cc(Cl)c(Cl)cc3[nH]2)CC1 [Example 112, 1,1,1,3,3.3-Hexafluoropropan-2-yl 1-((5,6-dichloro-1H-indol-2-yl)methyl)-1,8-diazaspiro[4.5] decane-8-carboxylate]			> 75		> 75	
CC(C)n1cc(CN2CCC3(CCN(C(=O)OC(C(F)(F)F)C(F)(F)F)CC3)C2)c(-c2cccc(C(=O)O)c2)n1 [Example 113, 3-(4-((8-(((1,1,1,3,3,3-Hexafluoropropan-2-yl)oxy)carbonyl)-2,8-diazaspiro[4.5]decan-2-yl)methyl)-1-isopropyl-1H-pyrazol-3-yl) benzoic acid]			25 to 75		25 to 75	
Cc1cc(Cl)c2nc(CN3CCCC34CCN(C(=O)OC(C(F)(F)F)C(F)(F)F)CC4)cn2c1 [Example 115, 1,1,1,3,3,3-Hexafluoropropan-2-yl 1-((8-chloro-6-methylimidazo [1,2-a]pyridin-2-yl)methyl)-1,8-diazaspiro[4.5] decane-8-carboxylate]	< 100		> 75		> 75	
O=C(O)Cn1cc(CN2CCCC23CCN(C(=O)OC(C(F)(F)F)C(F)(F)F)CC3)c(-c2cccc(Cl)c2)n1 [Example 118, 2-(3-(3-Chlorophenyl)-4-((8-(((1,1,1,3,3,3-hexafluoropropan-2-yl)oxy)carbonyl)-1,8-diazaspiro[4.5]decan-1-yl)methyl)-1H-pyrazol-1-yl)acetic acid]	< 100		> 75		> 75	
O=C(O)C1CCN(c2ncccc2CN2CCCC23CCN(C(=O)OC(C(F)(F)F)C(F)(F)F)CC3)CC1 [Example 124, 1-(3-((8-(((1,1,1,3,3,3-HexafIuoropropan-2-yl)oxy)carbonyl)-1,8-diazaspiro[4.5]decan-1-yl)methyl)pyridin-2-yl)piperidine-4-carboxylic acid]			> 75		25 to 75	
O=C(OC(C(F)(F)F)C(F)(F)F)N1CCC2(CCCN2Cc2cnc(N3CCN(C4CC4)CC3)s2)CC1 [Example 132, 1,1,1,3,3,3-Hexafluoropropan-2-yl 1-((2-(4-cyclopropylpiperazin-1-yl)thiazol-5-yl)methyl)-1,8-diazaspiro[4.5] decane-8-carboxylate]	< 100		> 75		> 75	
Cn1cc(Cl)c(CN2CCCC23CCN(C(=O)OC(C(F)(F)F)C(F)(F)F)CC3)n1 [Example 133, 1,1,1,3,3.3-Hexafluoropropan-2-yl 1-((4-chloro-1-methyl-1H-pyrazol-3-yl)methyl)-1,8-diazaspiro[4.5] decane-8-carboxylate]	< 100		> 75		> 75	
CN1CCN(c2ncncc2C(=O)N2CCCC23CCN(C(=O)OC(C(F)(F)F)C(F)(F)F)CC3)CC1 [Example 136, 1,1,1,3,3,3-Hexafluoropropan-2-yl 1-(4-(4-methylpiperazin-1-yl)pyrimidine-5-carbonyl)-1,8-diazaspiro [4.5]decane-8-carboxylate]			< 25		25 to 75	
COc1ncc(CN2CCCC23CCN(C(=O)OC(C(F)(F)F)C(F)(F)F)CC3)s1 [Example 138, 1,1,1,3,3,3-Hexafluoropropan-2-yl 1-((2-methoxythiazol-5-yl)methyl)-1,8-diazaspiro[4.5] decane-8-carboxylate]	< 100		> 75		> 75	

The next lines start with the values.

IC50 (MAGL [1]; [3]) [nM]	IC50 (MAGL [1]; [4]) [nM]	inhibition at 1 µM (MAGL [2]) [%]	IC50 (MAGL [2]) [nM]	inhibition at 1 µM (MAGL [1]; [5]) [%]	inhibition at 1 µM (MAGL [1]; [6]) [%]	Compound
< 100	< 100	> 75	< 100			O=C(OC(C(F)(F)F)C(F)(F)F)N1CCC2(CCCN2C(=O)c2cc3cccc(F)c3s2)CC1 [Example 96, 1,1,1,3,3,3-Hexafluoropropan-2-yl 1-(7-fluorobenzo[b]thiophene-2-carbonyl)-1,8-diazaspiro[4.5] decane-8-carboxylate]
< 100		> 75	< 100			Cc1c(C(=O)N2CCCC23CCN(C(=O)OC(C(F)(F)F)C(F)(F)F)CC3)[nH]c2ccc(F)cc12 [Example 104, 1,1,1,3,3,3-Hexafluoropropan-2-yl 1-(5-fluoro-3-methyl-1H-indole-2-carbonyl)-1,8-diazaspiro[4.5]decane-8-carboxylate]
		> 75		> 75		O=C(OC(C(F)(F)F)C(F)(F)F)N1CCC2(CCCN2C(=O)c2cn3cc(C(F)(F)F)cc(Cl)c3n2)CC1 [Example 116, 1,1,1,3,3,3-Hexafluoropropan-2-yl 1-(8-chloro-6-(trifluoromethyl)imidazo[1,2-a]pyridine-2-carbonyl)-1,8-diazaspiro[4.5] decane-8-carboxylate]
< 100		> 75		> 75		O=C(OC(C(F)(F)F)C(F)(F)F)N1CCC2(CCCN2C(=O)c2cnc(Cl)nc2N2CCCC2)CC1 [Example 117, 1,1,1,3,3,3-Hexafluoropropan-2-yl 1-(2-chloro-4-(pyrrolidin-1-yl)pyrimidine-5-carbonyl)-1,8-diazaspiro [4.5]decane-8-carboxylate]
< 100	< 100	> 75		> 75		O=C(OC(C(F)(F)F)C(F)(F)F)N1CCC2(CCCN2C(=O)c2cc(N3CCCC3)nc(Cl)n2)CC1 [Example 119, 1,1,1,3,3,3-Hexafluoropropan-2-yl 1-(2-chloro-6-(pyrrolidin-1-yl)pyrimidine-4-carbonyl)-1,8-diazaspiro [4.5]decane-8-carboxylate]
	< 100	> 75		> 75		Cc1cc(C(F)(F)F)n2nc(C(=O)N3CCCC34CCN(C(=O)OC(C(F)(F)F)C(F)(F)F)CC4)c(Cl)c2n1 [Example 121, 1,1,1,3,3,3-Hexafluoropropan-2-yl 1-(3-chloro-5-methyl-7-(trifluoromethyl)pyrazolo[1,5-a]pyrimidine-2-carbonyl)-1,8-diazaspiro[4.5] decane-8-carboxylate]
< 100		> 75		> 75		Cc1c(C(=O)N2CCCC23CCN(C(=O)OC(C(F)(F)F)C(F)(F)F)CC3)c(Cl)nn1C [Example 125, 1,1,1,3,3,3-Hexafluoropropan-2-yl 1-(3-chloro-1,5-dimethyl-1H-pyrazole-4-carbonyl)-1,8-diazaspiro[4.5] decane-8-carboxylate]
		< 25		25 to 75		Cc1ncncc1C(=O)N1CCCC12CCN(C(=O)OC(C(F)(F)F)C(F)(F)F)CC2 [Example 127, 1,1,1,3,3,3-Hexafluoropropan-2-yl 1-(4-methyl-pyrimidine-5-carbonyl)-1,8-diazaspiro[4.5] decane-8-carboxylate]
< 100		> 75		> 75		Cc1nc(C)c(C(=O)N2CCCC23CCN(C(=O)OC(C(F)(F)F)C(F)(F)F)CC3)o1 [Example 128, 1,1,1,3,3,3-Hexafluoropropan-2-yl 1-(2,4-dimethyloxazole-5-carbonyl)-1,8-diazaspiro[4.5] decane-8-carboxylate]
< 100		> 75		> 75		Cc1c(Cl)c(C(=O)N2CCCC23CCN(C(=O)OC(C(F)(F)F)C(F)(F)F)CC3)nn1C [Example 131, 1,1,1,3,3,3-Hexafluoropropan-2-yl 1-(4-chloro-1,5-dimethyl-1H-pyrazole-3-carbonyl)-1,8-diazaspiro[4.5] decane-8-carboxylate]
< 100		> 75		> 75		Cc1nc2ccccn2c1C(=O)N1CCCC12CCN(C(=O)OC(C(F)(F)F)C(F)(F)F)CC2 [Example 134, 1,1,1,3,3,3-Hexafluoropropan-2-yl 1-(2-methyl-imidazo[1,2-a]pyridine-3-carbonyl)-1,8-diazaspiro[4.5] decane-8-carboxylate]
< 100		> 75		> 75		O=C(OC(C(F)(F)F)C(F)(F)F)N1CCC2(CCCN2C(=O)c2c(C(F)(F)F)nc3n2CCCC3)CC1 [Example 139, 1,1,1,3,3,3-Hexafluoropropan-2-yl 1-(2-(trifluoromethyl)-5,6,7,8-tetrahydroimidazo [1,2-a]pyridine-3-carbonyl)-1,8-diazaspiro[4.5] decane-8-carboxylate]
< 100		> 75		> 75	> 75	O=C(OC(C(F)(F)F)C(F)(F)F)N1CCC2(CCCN2C(=O)c2cnn3ccc(Cl)nc23)CC1 [Example 145, 1,1,1,3,3,3-Hexafluoropropan-2-yl 1-(5-chloropyrazolo[1,5-a]pyrimidine-3-carbonyl)-1,8-diazaspiro[4.5] decane-8-carboxylate]
		> 75		> 75	> 75	O=C(OC(C(F)(F)F)C(F)(F)F)N1CCC2(CCCN2C(=O)c2cnn3ccccc23)CC1 [Example 146, 1,1,1,3,3,3-Hexafluoropropan-2-yl 1-(pyrazolo[1,5-a]pyridine-3-carbonyl)-1,8-diazaspiro[4.5] decane-8-carboxylate]
